Measurements reported in patent US9738634B2, “Heterocyclic amide compound and herbicide” (SYNGENTA PARTICIPATIONS AG, priority 2013, dated 2017).

What was measured:
Type in all cases: in vivo
barnyard grass [1] = test: Test Example 1: weedkilling efficacy, preemergent weed treatment in the submerged state; A: barnyard grass
Text: (§1) Weedkilling efficacy test on preemergent weed treatment in the submerged state
(§2) Alluvial soil was introduced into 1/10,000 Are Wagner pots, and 4 cm depth submerged conditions were created by addition of water and mixing. Seeds of barnyard grass, bulrush and oval-leafed pondweed were mixed and sown into the aforesaid cups, then 2.5 leaf stage rice seedlings were transplanted. On the sowing day, emulsions of compounds of the present invention prepared according to compounding example 2 were diluted with water to give the specified dosages and applied onto the water surface. The plants were grown after placing the cups in a greenhouse at 25 to 30° C. 3 weeks after the pesticide treatment the effect on each type of plant was investigated on the basis of the following assessment criteria.
(§3) A: barnyard grass, B: bulrush, C: oval-leafed pondweed, D: crabgrass, E: green foxtail, F: barnyard grass, G: wild oat, H: black-grass, I: Italian ryegrass, J: common wind-grass, K: Indian mallow, L: redroot pigweed, M: fig-leafed goosefoot, N: chickweed, O: catchweed, p: birds-eye speedwell, a: transplanted rice, b: directly sown rice, c: corn, d: soybean, e: wheat, f: beet, g: rapeseed
(§4) Further, pesticide dosage (g/ha) indicates the concentration regulated such that treatment was with only the stated number of grams (g), when calculated per hectare (ha).

bulrush [2] = test: Test Example 1: weedkilling efficacy, preemergent weed treatment in the submerged state; B: bulrush
Text: as §1, §2, §3, §4

oval-leafed pondweed [3] = test: Test Example 1: weedkilling efficacy, preemergent weed treatment in the submerged state; C: oval-leafed pondweed
Text: as §1, §2, §3, §4

transplanted rice = test: Test Example 1: preemergent weed treatment in the submerged state, effect on crop; a: transplanted rice
Text: as §1, §2, §3, §4

barnyard grass [4] = test: Test Example 2: weedkilling efficacy, growth period weed treatment in the submerged state; A: barnyard grass
Protocol: (§5) Weedkilling efficacy test on growth period weed treatment in the submerged state
as §2, with “and the plants were grown by placing in a greenhouse at 25 to 30° C. When the barnyard grass, bulrush and oval-leafed pondweed had reached the 1-2” for “then 2.5”, “stage,” for “stage rice seedlings were transplanted. On the sowing day,”, “surface.” for “surface. The plants were grown after placing the cups in a greenhouse at 25 to 30° C.”, “the” for “the following”, “criteria of test example 1.” for “criteria.”
as §3, §4

bulrush [5] = test: Test Example 2: weedkilling efficacy, growth period weed treatment in the submerged state; B: bulrush
Protocol: as §5
as §2, with “and the plants were grown by placing in a greenhouse at 25 to 30° C. When the barnyard grass, bulrush and oval-leafed pondweed had reached the 1-2” for “then 2.5”, “stage,” for “stage rice seedlings were transplanted. On the sowing day,”, “surface.” for “surface. The plants were grown after placing the cups in a greenhouse at 25 to 30° C.”, “the” for “the following”, “criteria of test example 1.” for “criteria.”
as §3, §4

oval-leafed pondweed [6] = test: Test Example 2: weedkilling efficacy, growth period weed treatment in the submerged state; C: oval-leafed pondweed
Protocol: as §5
as §2, with “and the plants were grown by placing in a greenhouse at 25 to 30° C. When the barnyard grass, bulrush and oval-leafed pondweed had reached the 1-2” for “then 2.5”, “stage,” for “stage rice seedlings were transplanted. On the sowing day,”, “surface.” for “surface. The plants were grown after placing the cups in a greenhouse at 25 to 30° C.”, “the” for “the following”, “criteria of test example 1.” for “criteria.”
as §3, §4

Compound	A: barnyard grass, weed kill grade (barnyard grass [1]; treatment dosage 320 g/ha)	B: bulrush, weed kill grade (bulrush [2]; treatment dosage 320 g/ha)	C: oval-leafed pondweed, weed kill grade (oval-leafed pondweed [3]; treatment dosage 320 g/ha)	a: transplanted rice, effect on crop grade (transplanted rice; treatment dosage 320 g/ha)	A (barnyard grass) weedkilling efficacy grade (barnyard grass [4]; treatment dosage 320 g/ha)	B (bulrush) weedkilling efficacy grade (bulrush [5]; treatment dosage 320 g/ha)	C (oval-leafed pondweed) weedkilling efficacy grade (oval-leafed pondweed [6]; treatment dosage 320 g/ha)	A: barnyard grass, weed kill grade (barnyard grass [1]; treatment dosage 252 g/ha)	B: bulrush, weed kill grade (bulrush [2]; treatment dosage 252 g/ha)	C: oval-leafed pondweed, weed kill grade (oval-leafed pondweed [3]; treatment dosage 252 g/ha)	a: transplanted rice, effect on crop grade (transplanted rice; treatment dosage 252 g/ha)	further results
CC(C(=O)Nc1cc(Cl)cc(Cl)n1)N1COCN(c2ccccc2)C1=O (racemic) [A-7-01]	–	–	–	–	–	–	–	–	–	–	–	A: barnyard grass, weed kill grade (barnyard grass [1]; treatment dosage 1000 g/ha): 5 (weed kill ratio 90% or more, (practically complete withering)); B: bulrush, weed kill grade (bulrush [2]; treatment dosage 1000 g/ha): 5 (weed kill ratio 90% or more, (practically complete withering)); C: oval-leafed pondweed, weed kill grade (oval-leafed pondweed [3]; treatment dosage 1000 g/ha): 4 (weed kill ratio 70% or more, less than 90%); a: transplanted rice, effect on crop grade (transplanted rice; treatment dosage 1000 g/ha): 0 (weed kill ratio 5% or less (practically no effect)); A (barnyard grass) weedkilling efficacy grade (barnyard grass [4]; treatment dosage 1000 g/ha): 3 (weed kill ratio 40% or more, less than 70%); B (bulrush) weedkilling efficacy grade (bulrush [5]; treatment dosage 1000 g/ha): 5 (weed kill ratio 90% or more, (practically complete withering)); C (oval-leafed pondweed) weedkilling efficacy grade (oval-leafed pondweed [6]; treatment dosage 1000 g/ha): 1 (weed kill ratio 5% or more, less than 20%)
Cn1ccc(NC(=O)C(C)(C)N2COCN(c3ccccc3)C2=O)n1 [A-1-03]	0 (weed kill ratio 5% or less (practically no effect))	5 (weed kill ratio 90% or more, (practically complete withering))	2 (weed kill ratio 20% or more, less than 40%)	0 (weed kill ratio 5% or less (practically no effect))	0 (weed kill ratio 5% or less (practically no effect))	2 (weed kill ratio 20% or more, less than 40%)	0 (weed kill ratio 5% or less (practically no effect))	–	–	–	–	–
CC(C)(C(=O)Nc1ncc([N+](=O)[O-])s1)N1COCN(c2ccccc2)C1=O [A-1-09]	5 (weed kill ratio 90% or more, (practically complete withering))	5 (weed kill ratio 90% or more, (practically complete withering))	4 (weed kill ratio 70% or more, less than 90%)	0 (weed kill ratio 5% or less (practically no effect))	4 (weed kill ratio 70% or more, less than 90%)	5 (weed kill ratio 90% or more, (practically complete withering))	5 (weed kill ratio 90% or more, (practically complete withering))	–	–	–	–	–
CC(C)(C(=O)Nc1nnc(C(F)(F)F)s1)N1COCN(c2ccccc2)C1=O [A-1-14]	4 (weed kill ratio 70% or more, less than 90%)	5 (weed kill ratio 90% or more, (practically complete withering))	3 (weed kill ratio 40% or more, less than 70%)	1 (weed kill ratio 5% or more, less than 20%)	2 (weed kill ratio 20% or more, less than 40%)	5 (weed kill ratio 90% or more, (practically complete withering))	2 (weed kill ratio 20% or more, less than 40%)	–	–	–	–	–
CSc1nc(NC(=O)C(C)(C)N2COCN(c3ccccc3)C2=O)ns1 [A-1-17]	2 (weed kill ratio 20% or more, less than 40%)	5 (weed kill ratio 90% or more, (practically complete withering))	3 (weed kill ratio 40% or more, less than 70%)	0 (weed kill ratio 5% or less (practically no effect))	0 (weed kill ratio 5% or less (practically no effect))	4 (weed kill ratio 70% or more, less than 90%)	2 (weed kill ratio 20% or more, less than 40%)	–	–	–	–	–
CC(C)(C(=O)Nc1nc(Cl)cc(Cl)n1)N1COCN(c2ccccc2)C1=O [A-1-19]	–	–	–	–	–	–	–	2 (weed kill ratio 20% or more, less than 40%)	3 (weed kill ratio 40% or more, less than 70%)	2 (weed kill ratio 20% or more, less than 40%)	0 (weed kill ratio 5% or less (practically no effect))	A (barnyard grass) weedkilling efficacy grade (barnyard grass [4]; treatment dosage 252 g/ha): 3 (weed kill ratio 40% or more, less than 70%); B (bulrush) weedkilling efficacy grade (bulrush [5]; treatment dosage 252 g/ha): 2 (weed kill ratio 20% or more, less than 40%); C (oval-leafed pondweed) weedkilling efficacy grade (oval-leafed pondweed [6]; treatment dosage 252 g/ha): 2 (weed kill ratio 20% or more, less than 40%)
CC(C)(C(=O)Nc1nc(Cl)ccc1Cl)N1COCN(c2ccccc2)C1=O [A-2-16]	–	–	–	–	–	–	–	0 (weed kill ratio 5% or less (practically no effect))	5 (weed kill ratio 90% or more, (practically complete withering))	2 (weed kill ratio 20% or more, less than 40%)	0 (weed kill ratio 5% or less (practically no effect))	–
CC(C)(C(=O)Nc1cc(Cl)cc(Cl)n1)N1COCN(c2ccccc2)C1=O [A-2-17]	–	–	–	–	–	–	–	5 (weed kill ratio 90% or more, (practically complete withering))	5 (weed kill ratio 90% or more, (practically complete withering))	5 (weed kill ratio 90% or more, (practically complete withering))	3 (weed kill ratio 40% or more, less than 70%)	A (barnyard grass) weedkilling efficacy grade (barnyard grass [4]; treatment dosage 252 g/ha): 5 (weed kill ratio 90% or more, (practically complete withering)); B (bulrush) weedkilling efficacy grade (bulrush [5]; treatment dosage 252 g/ha): 5 (weed kill ratio 90% or more, (practically complete withering)); C (oval-leafed pondweed) weedkilling efficacy grade (oval-leafed pondweed [6]; treatment dosage 252 g/ha): 5 (weed kill ratio 90% or more, (practically complete withering))
